Literature values, collected in patent US10711043B2, “Compositions and vaccines comprising vesicles and methods of using the same” (priority 2013, dated 2020).

For `COc1cc2cc(c1Cl)N(C)C(=O)C[C@H](OC(=O)[C@H](C)N(C)C(C)=O)[C@]1(C)O[C@H]1[C@H](C)[C@@H]1C[C@@](O)(NC(=O)O1)[C@H](OC)/C=C/C=C(\C)C2` [Maytansine, maytansine], the solubility is listed as “insoluble in water and most solvents”.
